The target in this assay is T1, PLK1 (Homo sapiens, UniProt P53350).
T1 construct: endogenous in cells; host or cells: HeLa
In words: PLK1 protein degradation in HeLa cells, Western blotting (PLK1/GAPDH ratio). The format is cell-based. The settings on record: 6 hours compound incubation; for DC50: measured only if the grade of Dmax is A or B; for Dmax: thymidine block and release, 10 points three-fold from 3 μM, PLK1 to GAPDH ratio, read-out: Dmax. The method in brief:
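Thymidine-synchronised HeLa cells (2 mM, 24 h) released 4 h into complete medium, then treated 6 h with compound in 10-point 3-fold dilutions from 3 μM. RIPA lysates (15 μg protein) run on SDS-PAGE; PLK1 Western blot normalised to GAPDH.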

T1 sequence (P53350 whole entry): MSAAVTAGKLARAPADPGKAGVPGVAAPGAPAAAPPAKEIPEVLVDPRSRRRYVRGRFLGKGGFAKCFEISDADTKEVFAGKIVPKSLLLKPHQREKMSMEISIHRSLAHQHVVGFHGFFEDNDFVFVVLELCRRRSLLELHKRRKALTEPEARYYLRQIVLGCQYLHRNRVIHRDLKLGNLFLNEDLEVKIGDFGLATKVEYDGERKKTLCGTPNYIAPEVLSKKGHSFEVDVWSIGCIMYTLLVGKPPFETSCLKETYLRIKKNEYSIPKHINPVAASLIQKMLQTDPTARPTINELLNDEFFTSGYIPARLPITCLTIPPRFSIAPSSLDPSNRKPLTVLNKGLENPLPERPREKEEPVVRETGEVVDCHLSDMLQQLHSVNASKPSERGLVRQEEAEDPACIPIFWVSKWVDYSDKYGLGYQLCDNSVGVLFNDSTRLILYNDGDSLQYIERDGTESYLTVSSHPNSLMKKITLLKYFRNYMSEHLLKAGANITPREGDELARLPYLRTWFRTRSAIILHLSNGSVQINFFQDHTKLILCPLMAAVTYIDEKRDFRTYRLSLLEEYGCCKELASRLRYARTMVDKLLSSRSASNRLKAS

With `COc1cc(C(=O)N[C@H]2CCN(C(=O)CCCC(=O)N3CC4(C3)CN(c3cccc5c3C(=O)N(C3CCC(=O)NC3=O)C5=O)C4)C2)c(F)cc1Nc1ncc2c(n1)N(C1CCCC1)CC(F)(F)C(=O)N2C` (stereo partly drawn) [Compound 149, 4-((9-cyclopentyl-7,7-difluoro-5-methyl-6-oxo-6,7,8,9-tetrahydro-5H-pyrimido[4,5-b][1,4]diazepin-2-yl)amino)-N-((3S)-1-(5-(6-(2-(2,6-dioxopiperidin-3-yl)-1,3-dioxoisoindolin-4-yl)-2,6-diazaspiro[3.3]heptan-2-yl)-5-oxopentanoyl)pyrrolidin-3-yl)-2-fluoro-5-methoxybenzamide], the DC50 is not above 500 nM and the Dmax was in the range of 60 to 80%.

As for `COc1cc(C(=O)NC2CCN(C(=O)COCCOCCNc3cccc4c3CN(C3CCC(=O)NC3=O)C4=O)C2)c(F)cc1Nc1ncc2c(n1)N(C1CCCC1)CC(F)(F)C(=O)N2C` (stereo not shown) [Compound 150, 4-((9-cyclopentyl-7,7-difluoro-5-methyl-6-oxo-6,7,8,9-tetrahydro-5H-pyrimido[4,5-b][1,4]diazepin-2-yl)amino)-N-(1-(2-(2-(2-((2-(2,6-dioxopiperidin-3-yl)-1-oxoisoindolin-4-yl)amino)ethoxy)ethoxy)acetyl)pyrrolidin-3-yl)-2-fluoro-5-methoxybenzamide], the DC50 is not above 50 nM and the Dmax is not below 80%.

Turning to `COc1cc(C(=O)NCCOCCNc2cccc3c2C(=O)N(C2CCC(=O)NC2=O)C3=O)c(F)cc1Nc1ncc2c(n1)N(C1CCCC1)CC(F)(F)C(=O)N2C` (stereo not shown) [Compound 151, 4-((9-cyclopentyl-7,7-difluoro-5-methyl-6-oxo-6,7,8,9-tetrahydro-5H-pyrimido[4,5-b][1,4]diazepin-2-yl)amino)-N-(2-(2-((2-(2,6-dioxopiperidin-3-yl)-1,3-dioxoisoindolin-4-yl)amino)ethoxy)ethyl)-2-fluoro-5-methoxybenzamide], the DC50 was not above 500 nM and the Dmax is 60 to 80%.

Consider `COc1cc(C(=O)NCCOCCOCCNc2cccc3c2C(=O)N(C2CCC(=O)NC2=O)C3=O)c(F)cc1Nc1ncc2c(n1)N(C1CCCC1)CC(F)(F)C(=O)N2C` (stereo not shown) [Compound 152, 4-((9-cyclopentyl-7,7-difluoro-5-methyl-6-oxo-6,7,8,9-tetrahydro-5H-pyrimido[4,5-b][1,4]diazepin-2-yl)amino)-N-(2-(2-(2-((2-(2,6-dioxopiperidin-3-yl)-1,3-dioxoisoindolin-4-yl)amino)ethoxy)ethoxy)ethyl)-2-fluoro-5-methoxybenzamide], for which the DC50 is not above 50 nM and the Dmax is not below 80%.

Take `COc1cc(C(=O)NCCOCCOCCOCCNc2cccc3c2C(=O)N(C2CCC(=O)NC2=O)C3=O)c(F)cc1Nc1ncc2c(n1)N(C1CCCC1)CC(F)(F)C(=O)N2C` (stereo not shown) [Compound 153, 4-((9-cyclopentyl-7,7-difluoro-5-methyl-6-oxo-6,7,8,9-tetrahydro-5H-pyrimido[4,5-b][1,4]diazepin-2-yl)amino)-N-(2-(2-(2-(2-((2-(2,6-dioxopiperidin-3-yl)-1,3-dioxoisoindolin-4-yl)amino)ethoxy)ethoxy)ethoxy)ethyl)-2-fluoro-5-methoxybenzamide]: the DC50 was not above 50 nM and the Dmax is not below 80%.

As for `COc1cc(C(=O)NCCCCCCCCNc2cccc3c2C(=O)N(C2CCC(=O)NC2=O)C3=O)c(F)cc1Nc1ncc2c(n1)N(C1CCCC1)CC(F)(F)C(=O)N2C` (stereo not shown) [Compound 154, 4-((9-cyclopentyl-7,7-difluoro-5-methyl-6-oxo-6,7,8,9-tetrahydro-5H-pyrimido[4,5-b][1,4]diazepin-2-yl)amino)-N-(8-((2-(2,6-dioxopiperidin-3-yl)-1,3-dioxoisoindolin-4-yl)amino)octyl)-2-fluoro-5-methoxybenzamide], the Dmax is less than 60%.

Take `COc1cc(C(=O)NCCOCCCNc2cccc3c2C(=O)N(C2CCC(=O)NC2=O)C3=O)c(F)cc1Nc1ncc2c(n1)N(C1CCCC1)CC(F)(F)C(=O)N2C` (stereo not shown) [Compound 155, 4-((9-cyclopentyl-7,7-difluoro-5-methyl-6-oxo-6,7,8,9-tetrahydro-5H-pyrimido[4,5-b][1,4]diazepin-2-yl)amino)-N-(2-(3-((2-(2,6-dioxopiperidin-3-yl)-1,3-dioxoisoindolin-4-yl)amino)propoxy)ethyl)-2-fluoro-5-methoxybenzamide]: the DC50 is not above 500 nM and the Dmax was in the range of 60 to 80%.

In the case of `COc1cc(C(=O)NCCOCCCOCCNc2cccc3c2C(=O)N(C2CCC(=O)NC2=O)C3=O)c(F)cc1Nc1ncc2c(n1)N(C1CCCC1)CC(F)(F)C(=O)N2C` (stereo not shown) [Compound 156, 4-((9-cyclopentyl-7,7-difluoro-5-methyl-6-oxo-6,7,8,9-tetrahydro-5H-pyrimido[4,5-b][1,4]diazepin-2-yl)amino)-N-(2-(3-(2-((2-(2,6-dioxopiperidin-3-yl)-1,3-dioxoisoindolin-4-yl)amino)ethoxy)propoxy)ethyl)-2-fluoro-5-methoxybenzamide], the DC50 was not above 50 nM and the Dmax was not below 80%.

With `COc1cc(C(=O)NCCCOCCCOCCNc2cccc3c2C(=O)N(C2CCC(=O)NC2=O)C3=O)c(F)cc1Nc1ncc2c(n1)N(C1CCCC1)CC(F)(F)C(=O)N2C` (stereo not shown) [Compound 157, 4-((9-cyclopentyl-7,7-difluoro-5-methyl-6-oxo-6,7,8,9-tetrahydro-5H-pyrimido[4,5-b][1,4]diazepin-2-yl)amino)-N-(3-(3-(2-((2-(2,6-dioxopiperidin-3-yl)-1,3-dioxoisoindolin-4-yl)amino)ethoxy)propoxy)propyl)-2-fluoro-5-methoxybenzamide], the DC50 is not above 50 nM and the Dmax was not below 80%.

For `COc1cc(C(=O)NCCCCCCCC(=O)Nc2cccc3c2C(=O)N(C2CCC(=O)NC2=O)C3=O)c(F)cc1Nc1ncc2c(n1)N(C1CCCC1)CC(F)(F)C(=O)N2C` (stereo not shown) [Compound 158, 4-((9-cyclopentyl-7,7-difluoro-5-methyl-6-oxo-6,7,8,9-tetrahydro-5H-pyrimido[4,5-b][1,4]diazepin-2-yl)amino)-N-(8-((2-(2,6-dioxopiperidin-3-yl)-1,3-dioxoisoindolin-4-yl)amino)-8-oxooctyl)-2-fluoro-5-methoxybenzamide], the DC50 was not above 500 nM and the Dmax is 60 to 80%.

With `COc1cc(C(=O)NC2CC3(C2)CN(C(=O)CCNc2cccc4c2C(=O)N(C2CCC(=O)NC2=O)C4=O)C3)c(F)cc1Nc1ncc2c(n1)N(C1CCCC1)CC(F)(F)C(=O)N2C` (stereo not shown) [Compound 159, 4-((9-cyclopentyl-7,7-difluoro-5-methyl-6-oxo-6,7,8,9-tetrahydro-5H-pyrimido[4,5-b][1,4]diazepin-2-yl)amino)-N-(2-(3-((2-(2,6-dioxopiperidin-3-yl)-1,3-dioxoisoindolin-4-yl)amino)propanoyl)-2-azaspiro[3.3]heptan-6-yl)-2-fluoro-5-methoxybenzamide], the DC50 is not above 50 nM and the Dmax was not below 80%.

For the compound `COc1cc(C(=O)NC2CC3(C2)CN(C(=O)CCCNc2cccc4c2C(=O)N(C2CCC(=O)NC2=O)C4=O)C3)c(F)cc1Nc1ncc2c(n1)N(C1CCCC1)CC(F)(F)C(=O)N2C` (stereo not shown) [Compound 160, 4-((9-cyclopentyl-7,7-difluoro-5-methyl-6-oxo-6,7,8,9-tetrahydro-5H-pyrimido[4,5-b][1,4]diazepin-2-yl)amino)-N-(2-(4-((2-(2,6-dioxopiperidin-3-yl)-1,3-dioxoisoindolin-4-yl)amino)butanoyl)-2-azaspiro[3.3]heptan-6-yl)-2-fluoro-5-methoxybenzamide], the DC50 is not above 50 nM and the Dmax is not below 80%.

`COc1cc(C(=O)NC2CC3(C2)CN(C(=O)CCCCNc2cccc4c2C(=O)N(C2CCC(=O)NC2=O)C4=O)C3)c(F)cc1Nc1ncc2c(n1)N(C1CCCC1)CC(F)(F)C(=O)N2C` (stereo not shown) [Compound 161, 4-((9-cyclopentyl-7,7-difluoro-5-methyl-6-oxo-6,7,8,9-tetrahydro-5H-pyrimido[4,5-b][1,4]diazepin-2-yl)amino)-N-(2-(5-((2-(2,6-dioxopiperidin-3-yl)-1,3-dioxoisoindolin-4-yl)amino)pentanoyl)-2-azaspiro[3.3]heptan-6-yl)-2-fluoro-5-methoxybenzamide]: the DC50 was not above 50 nM and the Dmax was not below 80%.

On to `COc1cc(C(=O)NCCCCCNC(=O)COc2cccc3c2C(=O)N(C2CCC(=O)NC2=O)C3=O)c(F)cc1Nc1ncc2c(n1)N(C1CCCC1)CC(F)(F)C(=O)N2C` (stereo not shown) [Compound 162, 4-((9-cyclopentyl-7,7-difluoro-5-methyl-6-oxo-6,7,8,9-tetrahydro-5H-pyrimido[4,5-b][1,4]diazepin-2-yl)amino)-N-(5-(2-((2-(2,6-dioxopiperidin-3-yl)-1,3-dioxoisoindolin-4-yl)oxy)acetamido)pentyl)-2-fluoro-5-methoxybenzamide], for which the DC50 was not above 50 nM and the Dmax was not below 80%.

For the compound `COc1cc(C(=O)NCCOCCOCCNc2ccc3c(c2)C(=O)N(C2CCC(=O)NC2=O)C3=O)c(F)cc1Nc1ncc2c(n1)N(C1CCCC1)CC(F)(F)C(=O)N2C` (stereo not shown) [Compound 163, 4-((9-cyclopentyl-7,7-difluoro-5-methyl-6-oxo-6,7,8,9-tetrahydro-5H-pyrimido[4,5-b][1,4]diazepin-2-yl)amino)-N-(2-(2-(2-((2-(2,6-dioxopiperidin-3-yl)-1,3-dioxoisoindolin-5-yl)amino)ethoxy)ethoxy)ethyl)-2-fluoro-5-methoxybenzamide], the DC50 was not above 500 nM and the Dmax is 60 to 80%.

On to `COc1cc(C(=O)NCCCCCCc2cccc3c2CN(C2CCC(=O)NC2=O)C3=O)c(F)cc1Nc1ncc2c(n1)N(C1CCCC1)CC(F)(F)C(=O)N2C` (stereo not shown) [Compound 164, 4-((9-cyclopentyl-7,7-difluoro-5-methyl-6-oxo-6,7,8,9-tetrahydro-5H-pyrimido[4,5-b][1,4]diazepin-2-yl)amino)-N-(6-(2-(2,6-dioxopiperidin-3-yl)-1-oxoisoindolin-4-yl)hexyl)-2-fluoro-5-methoxybenzamide], for which the DC50 is not above 500 nM and the Dmax lay in the range of 60 to 80%.

In general, DC50 refers to the concentration at which degradation of the target reaches its halfway point. The term Dmax denotes the greatest extent of degradation seen.
